Laboratory results from patent US11096985B2, “Antimicrobial peptides, their variants and uses” (priority 2015, dated 2021).
Values after ≈ are worked out from the molar mass of the structure shown. Where a SMILES comes first, the peptide text is derived from it. [ ]: non-standard residue; d: D form.

Tests used:
[1] = +4, 25, 37 and 45° C., 14 days, PBS pH 7.4, RDA with 20 μg
Method: (§4) Thermal stability was evaluated by diluting peptides to the concentration of 2 mg/ml in PBS buffer (pH 7.4) and incubating at different temperatures, such as +4° C., 25° C. (RT), 37° C. and 45° C., peptides stored at −20° C. were used as control. […] Peptides were also tested by diluting them at different pH values starting from pH 4 to 9. The effect of NaCl on the antimicrobial activity was tested by adding different concentrations (50, 100 and 200 mM) of NaCl to MH medium and the minimum inhibitory concentrations were tested against 4 ATCC bacterial strains.

[2] = pH 4-9, RDA
Method: as §4

[3] = tested on: human erythrocytes; format: cell-based
Method: In hemolysis assays, the ability of peptides at 128 μg/ml concentration to lyse human erythrocytes to release hemoglobin was measured. The peptides described here preferably have low hemolytic activity (0.2 to 3.8% hemolysis) in mammal body. […] These peptides are useful as antimicrobial drugs as they show little or no side effects at concentrations needed to kill bacteria.
Minimum inhibition concentrations (MICs) were tested by microbroth dilution method and Chain 104, 105 and 109 inhibited the growth of Escherichia coli (ATCC 25922), Staphylococcus aureus (ATCC 25923), Klebsiella pneumoniae (ATCC 10031) and Pseudomonas aeruginosa (ATCC 27853) between 1-8 μg/ml respectively (Tables 3a, 3b and 3c). The membranolytic activities of the peptides were tested by measuring the release of hemoglobin from erythrocytes of fresh blood donated by voluntiers. Hemoglobin levels were determined spectrometrically by taking OD at 540 nm by following the protocol of Schmidtchen et al., 2011.

[4] = tested on: clinical strains of Candida albicans; test: MIC, clinical yeast strains, Candida albicans; format: cell-based; design: unit: μg/ml
Method: (§1) Minimum inhibition concentrations (MICs) were determined against Escherichia coli (ATCC 25922), Staphylococcus aureus (ATCC 25923), Klebsiella pneumoniae (ATCC 10031) and Pseudomonas aeruginosa (ATCC 27853). Also clinical strains of E. coli, K. pneumoniae, E. cloacae, P. aeruginosa, Serratia marcescens, Proteus mirabilis, S. pneumoniae, Acinetobacter baumannii, A. johnsonii and S. aureus were used for MICs assays. Additionally, clinical strains of yeast including Candida albicans, C. glabrata, C. parapsilosis and C. quillermondiae were used. The susceptibility of these microorganisms to Chain peptides were determined using micro broth dilution assay. Colonies of the respective microorganism from Muller Hinton (MH) agar plates incubated overnight were suspended in MH broth media and final concentration of microorganism was adjusted to 5.0×10^5 cfu/ml. An aliquot of 10 μl of each Chain peptide, or gentamicin, tetracycline as reference antibiotics were added in differing concentrations along with 90 μl of bacterial suspension to 96 well polypropylene plates and incubated at 37° C. for 20 to 24 hours. Concentrations of Chain peptides and reference antibiotics ranged from 0.125 to 128 μg/ml and the MICs were recorded as the lowest concentration with no visual growth of bacteria. Similarly, antifungal MICs were tested in Potato dextrose broth.
(§2) Clinical strains of yeasts including Candida albicans, C. glabrata, C. parapsilosis and C. quillermondiae were also tested with the 12 Chain peptides. The minimum inhibitory concentration (MICs) varied between these peptides and are presented in Tables 4a, 4b, 4c and 5a, 5b, 5c. Peptides Chain 105, 201 and 308 are broad spectrum antimicrobials with MICs between 0.5-32 μg/ml against all the bacteria and yeasts tested, except Serratia marcescens and Proteus mirabilis, against which the MICs were between 64-128 μg/ml. Peptide Chain 306 has narrow spectrum activity against E.coli at 1 μg/ml and for the rest of the bacterial strains at >32 μg/ml (FIG. 10).

[5] = tested on: clinical strains of C. glabrata; test: MIC, clinical yeast strains, C. glabrata; format: cell-based, Candida glabrata; design: unit: μg/ml
Method: as §1, §2

[6] = tested on: clinical strains of C. quillermondiae; test: MIC, clinical yeast strains, C. quillermondiae; format: cell-based; settings: C. quillermondiae clinical yeast strain 1
Method: as §1, §2

[7] = tested on: clinical strains of Acinetobacter johnsonii; format: cell-based
Method: as §1, §2

[8] = tested on: clinical strains of C. parapsilosis; test: MIC, clinical yeast strains, C. parapsilosis; format: cell-based, Candida parapsilosis; design: unit: μg/ml
Method: as §1, §2

[9] = tested on: gram positive and negative bacteria; test: MIC by micro broth dilution, summary over the strains tested; format: cell-based
Method: as §1

[10] = tested on: S. aureus RN4220; format: cell-based, Staphylococcus aureus; settings: antibiotic sensitive strain S. aureus RN4220
Method: as §1
(§3) Peptides Chain 104, Chain 105, Chain 201, Chain 308, Chain 310 were tested against antibiotic-sensitive strains of S. aureus RN4220 and methicillin resistant strains of S. aureus COL (MRSA). Chain peptides comprising of either L- or D-form amino acids were tested against these bacteria, and the D-form peptides were found have better activity compared to L-form (Table 6). Synergistic activity of chain peptides along with Ertapenem (4 μg/ml) was tested to know whether it will influence the activity against MRSA strains. […] Chain 310 has the best antibacterial activity against the MRSA strains with a MIC of 0.06 & 0.03 μg/ml along with Ertapenem (4 μg/ml) for both forms of L and D-peptides (Table 6).

[11] = tested on: S. aureus COL (MRSA); test: Synergistic activity with Ertapenem (4 μg/ml) against MRSA, MIC; format: cell-based, Staphylococcus aureus; settings: S. aureus COL, together with 4 μg/ml Ertapenem (synergistic activity)
Method: as §1, §3

## CC[C@H](C)[C@H](NC(=O)[C@H](Cc1c[nH]c2ccccc12)NC(=O)[C@@H](N)CCCCN)C(=O)N[C@H](C(=O)N[C@@H](Cc1c[nH]c2ccccc12)C(=O)N[C@@H](CCCNC(=N)N)C(=O)N[C@@H](Cc1c[nH]c2ccccc12)C(=O)N[C@@H](CCCNC(=N)N)C(=O)N[C@@H](Cc1ccccc1)C(=O)N[C@@H](CCCCN)C(=O)N[C@@H](CCCNC(=N)N)C(=O)O)C(C)C [Chain201] (H-KWIVWRWRFKR-OH)
[1]
  thermostability (antibacterial activity kept after incubation): not hindered by pH or temperature even upto 45 °C for over 14 days
[2]
  pH stability (zone of inhibition): not hindered by pH
[3]
  side effects to humans as tested by hemolysis assay: little side effects

## CC[C@@H](C)[C@@H](NC(=O)[C@@H](CCSC)NC(=O)[C@@H](C)NC(=O)[C@@H](CCCNC(=N)N)NC(=O)[C@@H](Cc1c[nH]c2ccccc12)NC(=O)[C@@H](CCCCN)NC(=O)[C@H](N)CCCNC(=N)N)C(=O)N[C@H](CCCNC(=N)N)C(=O)N[C@H](CC(C)C)C(=O)N[C@H](Cc1c[nH]cn1)C(=O)N[C@H](C)C(=O)N[C@H](CCCCN)C(=O)N[C@H](CCCNC(=N)N)C(=O)N[C@H](CC(C)C)C(=O)N[C@H](CCCNC(=N)N)C(=O)N[C@H](CCCCN)C(=O)O [Chain104D] (H-[dR][dK][dW][dR][dA][dM][dI][dR][dL][dH][dA][dK][dR][dL][dR][dK]-OH)
[4]; Candida albicans clinical yeast strain 1
  Minimum inhibitory concentration: 8
[4]; Candida albicans clinical yeast strain 2
  Minimum inhibitory concentration: 8
[4]; Candida albicans clinical yeast strain 3
  Minimum inhibitory concentration: 8
[4]; Candida albicans clinical yeast strain 4
  Minimum inhibitory concentration: 8
[4]; Candida albicans clinical yeast strain 5
  Minimum inhibitory concentration: 8
[5]; C. glabrata clinical yeast strain 1
  Minimum inhibitory concentration: 8
[5]; C. glabrata clinical yeast strain 2
  Minimum inhibitory concentration: 8
[5]; C. glabrata clinical yeast strain 3
  Minimum inhibitory concentration: 8
[5]; C. glabrata clinical yeast strain 4
  Minimum inhibitory concentration: 16
[6]
  Minimum inhibitory concentration: 4
[7]
  Minimum inhibitory concentration, Acinetobacter johnsonii strain 1: 8 µg/mL (≈ 3.77 µM)
[8]; C. parapsilosis clinical yeast strain 1
  Minimum inhibitory concentration: 4
[8]; C. parapsilosis clinical yeast strain 2
  Minimum inhibitory concentration: 4
[8]; C. parapsilosis clinical yeast strain 3
  Minimum inhibitory concentration: 4
[8]; C. parapsilosis clinical yeast strain 4
  Minimum inhibitory concentration: 2

## CC[C@H](C)[C@H](N)C(=O)N[C@@H](Cc1c[nH]c2ccccc12)C(=O)N[C@@H](CCCCN)C(=O)N[C@@H](CCCNC(=N)N)C(=O)N[C@@H](Cc1ccccc1)C(=O)N[C@@H](CCCNC(=N)N)C(=O)N[C@@H](CC(C)C)C(=O)N[C@@H](Cc1ccccc1)C(=O)N[C@@H](CCCCN)C(=O)N[C@@H](CCCCN)C(=O)N[C@@H](Cc1c[nH]c2ccccc12)C(=O)O [Chain304] (H-IWKRFRLFKKW-OH; N-terminus and C-terminus assumed)
[9]
  activity against the four ATCC strains: very active

## CC(C)C[C@H](NC(=O)[C@H](CCCCN)NC(=O)[C@H](Cc1c[nH]c2ccccc12)NC(=O)[C@H](CCCCN)NC(=O)[C@H](C)NC(=O)[C@H](Cc1c[nH]cn1)NC(=O)[C@H](CC(C)C)NC(=O)[C@H](CCCNC(=N)N)NC(=O)[C@H](Cc1c[nH]c2ccccc12)NC(=O)[C@@H](N)Cc1c[nH]c2ccccc12)C(=O)N[C@@H](Cc1c[nH]c2ccccc12)C(=O)O [Chain109] (H-WWRLHAKWKLW-OH)
[3]
  side effects to humans as tested by hemolysis assay: little side effects

## CC(C)C[C@H](NC(=O)[C@H](Cc1c[nH]c2ccccc12)NC(=O)[C@H](Cc1ccccc1)NC(=O)[C@H](Cc1c[nH]c2ccccc12)NC(=O)[C@H](CCCCN)NC(=O)[C@H](CC(C)C)NC(=O)[C@@H](N)CCCCN)C(=O)N[C@@H](Cc1ccccc1)C(=O)N[C@@H](CCCCN)C(=O)N[C@@H](CCCCN)C(=O)N[C@@H](CCCNC(=N)N)C(=O)O [Chain311] (H-KLKWFWLFKKR-OH; N-terminus and C-terminus assumed)
[9]
  activity against the four ATCC strains: very active

## CC[C@H](C)[C@H](NC(=O)[C@H](CCSC)NC(=O)[C@H](C)NC(=O)[C@H](CCCNC(=N)N)NC(=O)[C@H](Cc1c[nH]c2ccccc12)NC(=O)[C@H](CCCCN)NC(=O)[C@@H](N)CCCNC(=N)N)C(=O)N[C@@H](CCCNC(=N)N)C(=O)N[C@@H](CC(C)C)C(=O)N[C@@H](Cc1c[nH]cn1)C(=O)N[C@@H](C)C(=O)N[C@@H](CCCCN)C(=O)N[C@@H](Cc1c[nH]c2ccccc12)C(=O)N[C@@H](CC(C)C)C(=O)N[C@@H](CCCNC(=N)N)C(=O)N[C@@H](CCCCN)C(=O)O [Chain105] (H-RKWRAMIRLHAKWLRK-OH)
[1]
  thermostability (antibacterial activity kept after incubation): not hindered by pH or temperature even upto 45 °C for over 14 days
[2]
  pH stability (zone of inhibition): not hindered by pH
[3]
  side effects to humans as tested by hemolysis assay: little side effects

## CC[C@H](C)[C@H](NC(=O)[C@H](CCSC)NC(=O)[C@H](C)NC(=O)[C@H](CCCNC(=N)N)NC(=O)[C@H](Cc1c[nH]c2ccccc12)NC(=O)[C@H](CCCCN)NC(=O)[C@@H](N)CCCNC(=N)N)C(=O)N[C@@H](CCCNC(=N)N)C(=O)N[C@@H](CC(C)C)C(=O)N[C@@H](Cc1c[nH]cn1)C(=O)N[C@@H](C)C(=O)N[C@@H](CCCCN)C(=O)N[C@@H](CCCNC(=N)N)C(=O)N[C@@H](CC(C)C)C(=O)N[C@@H](CCCNC(=N)N)C(=O)N[C@@H](CCCCN)C(=O)O [Chain104] (H-RKWRAMIRLHAKRLRK-OH)
[1]
  thermostability (antibacterial activity kept after incubation): not hindered by pH or temperature even upto 45 °C for over 14 days
[2]
  pH stability (zone of inhibition): not hindered by pH
[3]
  side effects to humans as tested by hemolysis assay: little side effects

## CC(C)C[C@H](NC(=O)[C@H](Cc1c[nH]c2ccccc12)NC(=O)[C@H](Cc1ccccc1)NC(=O)[C@H](Cc1c[nH]c2ccccc12)NC(=O)[C@H](CCCCN)NC(=O)[C@H](CCCNC(=N)N)NC(=O)[C@@H](N)Cc1c[nH]c2ccccc12)C(=O)N[C@@H](Cc1ccccc1)C(=O)N[C@@H](CCCCN)C(=O)N[C@@H](CCCCN)C(=O)N[C@@H](CCCNC(=N)N)C(=O)O [Chain309] (H-WRKWFWLFKKR-OH; N-terminus and C-terminus assumed)
[9]
  activity against the four ATCC strains: very active

## CC[C@H](C)[C@H](NC(=O)[C@H](CC(C)C)NC(=O)[C@H](CCCNC(=N)N)NC(=O)[C@@H](N)CCCNC(=N)N)C(=O)N[C@@H](Cc1c[nH]c2ccccc12)C(=O)N[C@@H](CCCNC(=N)N)C(=O)N[C@@H](CCCNC(=N)N)C(=O)N[C@@H](Cc1ccccc1)C(=O)N[C@@H](CCCCN)C(=O)N[C@@H](Cc1c[nH]c2ccccc12)C(=O)N[C@@H](CC(C)C)C(=O)N[C@@H](CCCNC(=N)N)C(=O)O [Chain204] (H-RRLIWRRFKWLR-OH)
[1]
  thermostability (antibacterial activity kept after incubation): not hindered by pH or temperature even upto 45 °C for over 14 days
[2]
  pH stability (zone of inhibition): not hindered by pH
[3]
  side effects to humans as tested by hemolysis assay: little side effects

## CC(C)C[C@H](NC(=O)[C@H](CC(C)C)NC(=O)[C@H](Cc1ccccc1)NC(=O)[C@H](Cc1c[nH]c2ccccc12)NC(=O)[C@H](CCCCN)NC(=O)[C@H](CC(C)C)NC(=O)[C@@H](N)CCCNC(=N)N)C(=O)N[C@@H](Cc1ccccc1)C(=O)N[C@@H](CCCNC(=N)N)C(=O)N[C@@H](CCCCN)C(=O)N[C@@H](CCCNC(=N)N)C(=O)O [Compound 308] (H-RLKWFLLFRKR-OH)
[10]
  Minimum inhibitory concentration (MIC), S. aureus RN4220: >64 µg/mL
[11]
  Minimum inhibitory concentration (MIC), S. aureus COL + 4 μg/ml Ertapenem: 0.5 µg/mL
